Laboratory results as given in US20250108049A1, “COMPOUNDS FOR TREATING MDS-ASSOCIATED ANEMIAS AND OTHER CONDITIONS” (Agios Pharmaceuticals, Inc., priority 2021, published 2025).

What was measured:
NHD13 mice [1] = experiment: Bone marrow aspirate flow cytometry of erythroblast populations in NHD13 mice (Example 5); assay type: in vivo, mouse; conditions: NHD13 mice aged 4 months, in chow, 20 weeks of treatment; mild disease in model
Description: (§1) To determine the impacts of mitapivat and Compound 1 under these conditions, bone marrow aspirates from diseased mice were collected and populations of erythroblasts were evaluated at various stages of maturation using flow cytometry. Hemoglobin (Hb), red blood cell (RBC) counts, and reticulocyte fractions were also monitored every 4 weeks in whole blood on a Sysmex XN-1000™ hematology analyzer to determine if disease burden and impact on erythroblast maturation could be detected in the periphery. Pharmacodynamics and pharmacokinetic analysis were also performed to confirm appropriate exposure and target engagement of the compounds (data not shown).
A NUP98-HOXD13 (NHD13) transgenic MDS associated mouse model will also be used to assess the therapeutic benefit of disclosed compounds. See e.g., Lin et al., Blood 2005 Jul 1;106(1):287-95 and Suragani et al., Nat Med 2014 Apr;20(4):408-14. […] A full blood panel and erythroid precursor analysis will be conducted after 2 months of treatment, and results will be analyzed.
Using Example 4, 20 NHD13 mice (10 males and 10 females per group; RRID:IMSR_JAX:010505) aged 4 months were randomized into treatment groups using matched distribution of hemoglobin levels. […] After 20 weeks of treatment with either mitapivat or Compound 1, bone marrow aspirates of the NHD13 mice were collected as described above and analyzed by flow cytometry. […]

NHD13 mice [2] = experiment: Whole blood hematology in NHD13 mice (Example 5); assay type: in vivo, mouse; conditions: NHD13 mice aged 4 months, in chow, 20 weeks of treatment
Description: as §1
A NUP98-HOXD13 (NHD13) transgenic MDS associated mouse model will also be used to assess the therapeutic benefit of disclosed compounds. See e.g., Lin et al., Blood 2005 Jul 1;106(1):287-95 and Suragani et al., Nat Med 2014 Apr;20(4):408-14. Male and female NHD13 mice aged to 4 or 10 months will be administered a disclosed compound in chow, ad libitum (e.g., mitapivat or Compound 1) daily. A full blood panel and erythroid precursor analysis will be conducted after 2 months of treatment, and results will be analyzed.
Using Example 4, 20 NHD13 mice (10 males and 10 females per group; RRID:IMSR_JAX:010505) aged 4 months were randomized into treatment groups using matched distribution of hemoglobin levels. Mice were dosed with either mitapivat or Compound 1 for 20 weeks in the same manner (in chow, ad libitum) as Example 3. After 20 weeks of treatment with either mitapivat or Compound 1, bone marrow aspirates of the NHD13 mice were collected as described above and analyzed by flow cytometry. […] In addition, a significant decline in survival of vehicle control NHD13 mice as previously reported (Lin et al., […] 2005 July;106(1)) was not observed. […] This mild state of disease was also supported in whole blood analysis. […] Data not shown.

Polg^D257A mice [3] = experiment: Mitapivat in Polg^D257A MDS-associated anemia mouse model, whole blood hematology (Example 2); assay type: in vivo; conditions: 200 mg/kg/day in chow
Description: as §1
Mitochondrial disruption has been linked to the development of anemia in MDS patients (see, e.g., Chen et al. Blood. 2009; 114(19):4045-53). Mitochondria play a key role in regulation of apoptosis, which is a mechanism highlighted in defunct hematopoiesis of MDS (Green et al., Science 1998; 281(5381):1309-1312, Kerbauy et al., Exp Hematol. 2007; 35(11): 1739-1746; Ahlqvist et al. Nature Communications. 2015; 6:6494). B6.12957(Cg)-Polg^tm1prol/J, or Polg^D257A, is a mouse model with a mutation in the N-terminus of the DNA polymerase γ gene that results in impaired proofreading activity in the mitochondria, leading to increased mtDNA mutagenesis (Jackson Laboratory #017341). See, Chen et al. Blood. 2009; 114(19):4045-53 and Ahlqvist et al. Nature Communications. 2015; 6:6494. […] Here, we used the Polg^D257A mouse model to evaluate the therapeutic benefit of a PK activator, mitapivat, in this mechanism of anemia.
Male and female Polg^D257A mice were administered 200 mg/kg/day mitapivat in chow, ad libitum, for 18 weeks starting at 7.5 months of age, once anemic phenotype was established by hematology analysis. Whole blood was collected via tail vein into EDTA tubes and analyzed using a Sysmex XN-2000™ hematology system according to manufacturer protocol. Hemoglobin, red blood cells (RBCs), and reticulocytes were monitored every 2-4 weeks to track disease progression and severity. After 18 weeks of mitapivat treatment, RBC counts were elevated by 45% and hemoglobin levels were increased by 2.4 g/dL in mitapivat treated mice compared to untreated mutants.
See FIGS. 1A-D and FIGS. 2A-D (C57BL/6J mice were used as controls). […] Commensurate with increased hemoglobin was a marked decrease (about 30%) in reticulocyte count.

Polg^D257A mice [4] = experiment: Whole blood Hb, RBC and reticulocyte analysis in Polg^D257A mice, second experiment (Example 3); assay type: in vivo, mouse
Description: as §1
(§2) A second experiment was performed using the Polg^D257A model (RRID:IMSR_JAX:017341) from Example 2. In this experiment 20 mice (10 males and 10 females per group) were dosed with either mitapivat or Compound 1 in chow as described in Example 2. For the mitapivat group, the compound was dosed at 200 mg/kg/day and for the Compound 1 group, Compound 1 was dosed at 10 mg/kg/day. Treatment was started when the mice were 4 months of age and was continued for 8 months (rolling enrollment). Following 8 months of treatment (at 12 months of age), an evaluation of bone marrow aspirates was conducted by flow cytometry using well established markers of erythropoiesis following a modified procedure outlined in Suragani et al., Nat Med 2014 Apr; 20(4):408-14. Bone marrow aspirates were treated with ACK lysis buffer for 3 minutes to remove red blood cells from the sample. Remaining cells were washed and maintained in PBS+5% FBS throughout the remainder of the procedure. The flow cytometry panel included live/dead (Indol), B220 (BV421), CD5 (BV421), CD71 (AF700), and Terl19 (PE) antibodies. The gating strategy used for analysis was as follows: Live/B220-CD5-/Terl19+. Ter119+cells were then gated into populations using CD71 and FSC as outlined in the literature (Suragani et al., Nat Med 2014 Apr; 20(4):408-14; FIG. 6E). […] FIG. 6D. Flow cytometry data on the mitapivat treated Polg^D257A mice is not available as the mitapivat treatment arm is not yet completed.
Data not shown. After 24 weeks (6 months thus far) of treatment, mitapivat increased Hb and RBC counts by 7% in Polg^D257A mice, with no change in reticulocytes. Data not shown. After 32 weeks of treatment with Compound 1 no change in Hb, RBC count, or reticulocyte fraction was observed. Data not shown.

Polg^D257A mice [5] = experiment: Bone marrow aspirate flow cytometry of erythroblast populations in Polg^D257A mice (Example 3); assay type: in vivo, mouse; conditions: 10 mg/kg/day in chow, 8 months of treatment
Description: as §1, §2

[6] = male and female Polg^D257A mice, after 18 weeks
[7] = 200 mg/kg/day in chow, after 24 weeks of treatment
[8] = 10 mg/kg/day in chow, after 32 weeks of treatment

Compound: O=C(c1ccc(NS(=O)(=O)c2cccc3cccnc23)cc1)N1CCN(CC2CC2)CC1 [mitapivat, N-(4-(4-(cyclopropylmethyl)piperazine-1-carbonyl)phenyl)quinoline-8-sulfonamide]
- therapeutic benefit in bone marrow flow cytometry data (erythroblast populations) (NHD13 mice [1]): difficult to detect any therapeutic benefit
- reduction in reticulocyte count (NHD13 mice [2]): 15%
- reduction in reticulocyte fraction (FIG. 8C) (NHD13 mice [2]): 20%
- response in Hb compared to vehicle controls (FIG. 8A) (NHD13 mice [2]): minimal response
- response in RBC count compared to vehicle controls (FIG. 8B) (NHD13 mice [2]): minimal response
- decrease in reticulocyte count (FIG. 2C) (Polg^D257A mice [3]; Polg^D257A mice): about 30%
- frequency of reticulocytes decreased (Polg^D257A mice [3]; Polg^D257A mice, after 18 weeks): 30%
- therapeutic benefit (hemoglobin), female mutators (Polg^D257A mice [3]; female Polg^D257A mice, after 18 weeks): responded after 18 weeks
- increase in hemoglobin, male mutators (Polg^D257A mice [3]; male Polg^D257A mice, starting at 6-weeks post-treatment): 1 to 2 g/dL
- RBC counts elevated compared to untreated mutants (Polg^D257A mice [3]; [6]): 45%
- hemoglobin levels increased compared to untreated mutants (Polg^D257A mice [3]; [6]): 2.4 g/dL
- Hb increased (Polg^D257A mice [4]; [7]): 7%
- RBC counts increased (Polg^D257A mice [4]; [7]): 7%
- change in reticulocytes (Polg^D257A mice [4]; [7]): no change

Compound: Cn1c2nc(Cc3cc[nH]n3)sc2c2cnn(Cc3cccc(N)n3)c(=O)c21 [Compound 1, 2-((1H-pyrazol-3-yl)methyl)-6-((6-aminopyridin-2-yl)methyl)-4-methyl-4H-thiazolo[5′,4′:4,5]pyrrolo[2,3-d]pyridazin-5(6H)-one]
- therapeutic benefit in bone marrow flow cytometry data (erythroblast populations) (NHD13 mice [1]): difficult to detect any therapeutic benefit
- late basophilic and polychromatic erythroblasts (EryB) in bone marrow (Polg^D257A mice [5]): increase
- orthochromatic and reticulocytes (EryC) in bone marrow (Polg^D257A mice [5]): increase
- ProE (proerythrocyte) population in bone marrow (Polg^D257A mice [5]; compared to vehicle control Polg^D257A mice): no additional impact
- basophilic erythroblasts (EryA) in bone marrow (Polg^D257A mice [5]; vs vehicle control Polg^D257A mice): reduction
- reduction in reticulocyte count (NHD13 mice [2]): 25%
- reduction in reticulocyte fraction (FIG. 8C) (NHD13 mice [2]): 20%
- response in Hb compared to vehicle controls (FIG. 8A) (NHD13 mice [2]): minimal response
- response in RBC count compared to vehicle controls (FIG. 8B) (NHD13 mice [2]): minimal response
- change in Hb (Polg^D257A mice [4]; [8]): no change
- change in RBC count (Polg^D257A mice [4]; [8]): no change
- change in reticulocyte fraction (Polg^D257A mice [4]; [8]): no change
